Reference: ChEMBL document CHEMBL1201862, “PubChem BioAssay data set” (2004)
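The compound was tested at five concentrations on cells cultured in 96-well plates, with a 48-hour exposure period. At the GI50, growth is halved.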 The source made the active and inactive calls. No stated cut-off is given here; in the data, active = GI50 up to about 1.1 µM and inactive = higher.

Key:
Assay in all cases: growth of human tumour cells (NCI), 48 h
786-0 = system: 786-0
A498 = system: A498
A549 = system: A549
CAKI-1 = system: CAKI-1
DU-145 = system: DU-145
HCT-116 = system: HCT-116
HOP-92 = system: HOP-92
K562 = system: K562
MDA-N = system: MDA-N
MOLT-4 = system: MOLT-4
NCI-H522 = system: NCI-H522
NCI/ADR-RES = system: NCI/ADR-RES
PC-3 = system: PC-3
SF-539 = system: SF-539
SK-MEL-5 = system: SK-MEL-5
SN12C = system: SN12C
T47D = system: T47D
U-251 = system: U-251
UACC-257 = system: UACC-257
UO-31 = system: UO-31

SMILES	GI50 (786-0)	GI50 (A498)	GI50 (A549)	GI50 (CAKI-1)	GI50 (DU-145)	GI50 (HCT-116)	GI50 (HOP-92)	GI50 (K562)	GI50 (MDA-N)	GI50 (MOLT-4)	GI50 (NCI-H522)	GI50 (NCI/ADR-RES)	GI50 (PC-3)	GI50 (SF-539)	GI50 (SK-MEL-5)	GI50 (SN12C)	GI50 (T47D)	GI50 (U-251)	GI50 (UACC-257)	GI50 (UO-31)
CC(C)CC(N)C(=O)NC(C(=O)NC(CCCNC(=N)N)C(=O)NC(CS)C(=O)NC1CSCC(C(=O)NC(Cc2ccccc2)C(=O)NC(C(=O)NC(CCCNC(=N)N)C(=O)O)C(C)C)NC(=O)C2CCCN2C(=O)C(CCCCN)NC(=O)C2CCCN2C(=O)C2CCCN2C(=O)C(Cc2ccc(O)cc2)NC(=O)C(CO)NC(=O)C(CCCCN)NC(=O)C(C(C)O)NC(=O)C(Cc2c[nH]c3ccccc23)NC1=O)C(C)C (stereo not given)	> 25 µM (inactive)	> 25 µM (inactive)	> 25 µM (inactive)	> 25 µM (inactive)	> 25 µM (inactive)	> 25 µM (inactive)	> 25 µM (inactive)	> 25 µM (inactive)	> 25 µM (inactive)	> 25 µM (inactive)	> 25 µM (inactive)	> 25 µM (inactive)	> 25 µM (inactive)	> 25 µM (inactive)	> 25 µM (inactive)	> 25 µM (inactive)	> 25 µM (inactive)	> 25 µM (inactive)	> 25 µM (inactive)	> 25 µM (inactive)
COCn1c2ccc(OC(C)=O)cc2c2c(=O)oc(C)nc21	> 100 µM (inactive)	50.4 µM (inactive)	> 100 µM (inactive)	57.7 µM (inactive)	> 100 µM (inactive)	> 100 µM (inactive)	> 100 µM (inactive)	> 100 µM (inactive)	> 100 µM (inactive)	> 100 µM (inactive)	> 100 µM (inactive)	> 100 µM (inactive)	> 100 µM (inactive)	> 100 µM (inactive)	> 100 µM (inactive)	> 100 µM (inactive)	> 100 µM (inactive)	> 100 µM (inactive)	> 100 µM (inactive)	> 100 µM (inactive)
CC1CNC(c2ccc(COc3ccc(C4=NC(C)CN4)cc3)cc2)=N1 (stereo not given)	> 100 µM (inactive)	> 100 µM (inactive)	21.2 µM (inactive)	> 100 µM (inactive)	> 100 µM (inactive)	39.1 µM (inactive)	> 100 µM (inactive)	15.5 µM (inactive)	82.2 µM (inactive)	> 100 µM (inactive)	39 µM (inactive)	> 100 µM (inactive)	32.1 µM (inactive)	54.8 µM (inactive)	28.6 µM (inactive)	17.6 µM (inactive)	15.5 µM (inactive)	28.5 µM (inactive)	16.9 µM (inactive)	> 100 µM (inactive)
CNC1C(=O)C(C)C(O)(C(CC(C)C(O)/C=C/C=C/CNC(=O)C(C)(C)C(O)\C(C)=C/C=C\C=C\Cc2cnc(C)o2)OC)C12C(=O)OC2C.CNC1C(=O)C(C)C(O)(C(CC(C)C(O)/C=C/C=C/CNC(=O)C(C)(C)C(O)\C(C)=C/C=C\C=C\Cc2cnc(C)o2)OC)C12C(=O)OC2COC (stereo not given)	18.5 µM (inactive)	28.4 µM (inactive)	0.78 µM (active)	31.8 µM (inactive)	31.5 µM (inactive)	15.1 µM (inactive)	2.72 µM (inactive)	0.181 µM (active)	15 µM (inactive)	8.85 µM (inactive)	0.565 µM (active)	15.9 µM (inactive)	0.237 µM (active)	23.2 µM (inactive)	0.191 µM (active)	10.9 µM (inactive)	0.202 µM (active)	1.15 µM (inactive)	0.188 µM (active)	10.5 µM (inactive)
C=C1CCC(CC[C@@H]2CC[C@]3(OC2)O[C@@]2(O)CC[C@]3(C)OC2(C)C)C(C)(C)[C@H]1C/C=C1/C(=O)OC[C@@H]1O (stereo not given in full)	2.96 µM (inactive)	5.93 µM (inactive)	3.55 µM (inactive)	5 µM (inactive)	4.83 µM (inactive)	0.71 µM (active)	2.02 µM (inactive)	0.141 µM (active)	1.49 µM (inactive)	1.59 µM (inactive)	1.29 µM (inactive)	0.906 µM (active)	2.17 µM (inactive)	3.17 µM (inactive)	0.0986 µM (active)	2.36 µM (inactive)	0.413 µM (active)	2 µM (inactive)	0.363 µM (active)	4.91 µM (inactive)
